Usually IC50 stands for the concentration that inhibits the measured activity by half. As a reminder, the DC50 is the concentration giving 50% degradation. Low values mean degradation at low concentration, high ones degradation only at high concentration. By Dmax is commonly meant the largest share of the target that was removed. Low readings indicate a partial loss of target, high ones a fuller loss of target.

Structures are written as SMILES.

In experiment [1] the test system is KRAS G12D mutant human metastatic pancreatic cancer cell AsPc-1. Nature of the experiment: 3D cell proliferation inhibition assay, AsPc-1. It counts as cell-based. The settings on record: ASPC1, 168 h, AsPc-1, 7 days, CTG, numeric values. The method in brief:
(§1)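 3D growth, low-adsorption plate; 5×10^2 cells/well; cpd 10000–0.026 nM final, 0.2% DMSO; 7 d, 37 °C/5% CO2. CTG luminescence, 60 min RT. % inhibition vs DMSO (cells) and medium blanks; IC50 by nonlinear fit.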

For experiment [2], the target named is T1, KRAS-G12D (Homo sapiens, UniProt P01116, G12D).
T1 construct: endogenous in cells; host or cells: A-427 (ATCC), AGS, AsPc-1, Panc 04.03
T1 sequence (P01116 1-188 isoform P01116-2 G12D): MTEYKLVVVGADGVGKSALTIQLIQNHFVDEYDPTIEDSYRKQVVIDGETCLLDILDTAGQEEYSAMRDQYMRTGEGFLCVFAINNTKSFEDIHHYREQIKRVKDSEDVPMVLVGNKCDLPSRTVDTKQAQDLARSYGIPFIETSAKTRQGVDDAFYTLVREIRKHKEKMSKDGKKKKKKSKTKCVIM
Nature of the experiment: KRAS-G12D degradation assay (Western Blot), AGS cells. It counts as cell-based. The settings on record: 24 h. As for the experimental part:
(§2) The degradation effects of the compounds on KRAS-G12D were investigated on KRAS G12D mutant human lung cancer cell A-427 (ATCC), KRAS G12D mutant human gastric cancer cell AGS, KRAS G12D mutant human metastatic pancreatic cancer cell AsPc-1, and KRAS G12D mutant human pancreatic adenocarcinoma cell Panc 04.03. The specific procedures were as follows: 0.95 mL of cells were seeded into each well of a 24-well cell culture plate to achieve a cell density of 5×10^5 cells/well; and the cell plate was incubated in an incubator at 37° C. with 5% CO2 overnight. Then 50 μL of the compound solution after dilution was added to each of the wells with the corresponding cells, so that the final concentration of the compound was in a range of 0.03-3000 nM. The final concentration of DMSO was 0.25%. After the compounds were added, the cell plate was incubated in the incubator at 37° C. with 5% CO2 for 24 h. The culture medium in the 24-well cell culture plate was removed, and the plate was washed twice with 1×PBS (KeyGEN). 120 μL of RIPA (strong) lysis buffer (Beyotime) supplemented with 1 mM phenylmethylsulfonyl fluoride, a protease inhibitor mixture (Beyotime), and a protease phosphatase inhibitor mixture (Beyotime) was added to lyse adherent A-427 cells at the bottom of the cell culture plate. After the plate was left to stand on ice for 30 min, the protein lysate in each well was transferred to a 1.5 mL centrifuge tube and centrifuged at 15000 g for 20 min at 4° C. The cell lysate supernatants after centrifugation were cryopreserved in a refrigerator at −80° C. for later use.
(§3) After the samples of the cell lysate supernatants that had been prepared were thawed from the refrigerator at −80° C., the total protein concentrations of the cell lysates were determined using a BCA protein quantification kit (Tiangen). The total protein concentrations of the samples were then adjusted to 0.5 μg/μL with PBS and 5×SDS-PAGE protein loading buffer (Beyotime), and the samples were incubated in a water bath at 100° C. for 15 min. The samples were then incubated in an ice bath for 5 min and centrifuged at 14000 g for 1 min at 4° C., and the supernatants were mixed well as loading samples for the Western Blot assay. The samples were loaded into wells of a 10% precast gel (KeyGEN) with a loading volume of 10 μL (total protein: 5 μg), a sufficient Tris-MOPS-SDS running buffer (Adamas) was added, and then electrophoresis was performed at a constant voltage of 120 V for 55 min. After the electrophoresis, the proteins on the gel were transferred to PVDF membranes at a constant current of 250 mA for 55 min. After the membrane transfer, the PVDF membranes were incubated in 1× Quick Block blocking buffer (Beyotime) at room temperature for 30 min. After the blocking, the PVDF membranes were separately incubated at 4° C. overnight with the KRAS antibody (Abcam) diluted in a ratio of 1:1000 and the […] antibody (Abcam) diluted in a ratio of 1:2000 in 5% BSA as the diluent, and then washed with 1×TBST buffer (2.4 g of Tris, 8.8 g of NaCl, 1.5 mL of Tween 20, with pH adjusted to 7.4, with the volume brought to 1 L) 3 times for 10 min/time. The membranes were incubated with a secondary antibody (Abcam) diluted in 5% BSA at room temperature for 2 h, and then washed with 1×TBST buffer 3 times for 10 min/time. Finally, the membranes were incubated with Clarity Western ECL Substrate (BIO-RAD) for 5 min for luminescence and color development, and a ChemiScope 6200 Touch chemiluminescence imaging system (Clinx) was used for color development and protein mapping. Gray value analysis of the protein maps was performed using the chemiluminescence analysis software (Clinx). The gray correction value for each sample was calculated using the formula: gray correction value=(gray value of target protein/gray value of corresponding internal reference)×10^3. Then degradation rates were calculated by comparison with the gray correction value of the control group. […]
A general note: A western blot detects proteins with antibodies after separation by electrophoresis.

In experiment [3] the target is T1, KRAS-G12D. Description: KRAS-G12D degradation assay (Western Blot), Panc 04.03 cells. It counts as cell-based. The settings on record: 24 h. The method, then:
as §2, §3

The test system of experiment [4] is KRAS G12D mutant human pancreatic cancer cell HPAC. Nature of the experiment: 3D cell proliferation inhibition assay, HPAC. Format: cell-based. The settings on record: 168 h, 7 days, CTG. The method, boiled down: as §1
For experiment [5], the system named is KRAS G12D mutant human gastric cancer cell AGS. Description: 3D cell proliferation inhibition assay, AGS. As to conditions: 168 h, 7 days, CTG, numeric values. Format: cell-based. The method in brief: as §1
For experiment [6], the target named is T1, KRAS-G12D. Nature of the experiment: KRAS-G12D degradation assay (Western Blot), AsPc-1 cells. It counts as cell-based. As to conditions: for DC50: 24 h; for Dmax: ASPC1, 24 h. The method, boiled down:
(§4)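 Western blotting of lysates (5 μg protein) quantified KRAS against a β-actin reference after 24 h exposure to compound at final 0.03–3000 nM in 0.25% DMSO. Cells were A-427, AGS, AsPc-1 or Panc 04.03, all KRAS G12D, at 5×10^5/well. Degradation versus control yielded DC50 and Dmax.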

Experiment [7] has as its target T1, KRAS-G12D. Description: KRAS-G12D degradation assay (Western Blot), A-427 cells. Format: cell-based. As to conditions: A427 cells, 24 h, numeric values; for Dmax: A-427. The method in brief: as §4
Experiment [8] concerns KRAS G12D mutant human lung cancer cell A427. Nature of the experiment: 3D cell proliferation inhibition assay, A427. As to conditions: A-427, 168 h, A427, 7 days, CTG, numeric values. It counts as cell-based. The method in brief:
as §1

The subject of experiment [9] is KRAS G12D mutant human pancreatic cancer cell Panc 04.03. Description: 3D cell proliferation inhibition assay, Panc 04.03. Format: cell-based. As to conditions: 168 h, Panc 04.03, 7 days, CTG, numeric values. The method, boiled down: as §1
Another experiment relates to KRAS-G12D mutant cells. The settings on record: KRAS-G12D mutant cells versus wild-type tumor cells; cited from earlier work.
Experiment [10] concerns xenograft tumor models of both pancreatic cancer and colorectal cancer. As to conditions: cited from earlier work.

In the case of `C#Cc1cccc2cc(O)cc(-c3ccc4c(N5CC6CCC(C5)N6)nc(OCC5(CN6CCN(CC7CCC8(CC7)CCN(C(=O)c7ccc(Cl)c(N9CCC(=O)NC9=O)c7)CC8)CC6)CC5)nc4c3F)c12` [Example 78, 1-(5-(9-((4-((1-(((4-(3,8-diazabicyclo[3.2.1]octan-3-yl)-7-(8-ethynyl-3-hydroxynaphthalen-1-yl)-8-fluoroquinazolin-2-yl)oxy)methyl)cyclopropyl)methyl)piperazin-1-yl)methyl)-3-azaspiro[5.5]undecane-3-carbonyl)-2-chlorophenyl)dihydropyrimidine-2,4(1H,3H)-dione], the IC50 in [1] came out at 17 nM; in experiment [4], 18.7 nM; in experiment [5] it was 9.25 nM; in experiment [8] it was 16.3 nM; in [9] it was 37.9 nM. Moreover, the DC50 on KRAS-G12D [2] stood at 28.9 nM; on KRAS-G12D [3] it was 16.3 nM; on KRAS-G12D [6] it was 23.7 nM; on KRAS-G12D [7], 10.1 nM. In addition, the Dmax at KRAS-G12D [2] turned out to be 92.6%; on KRAS-G12D [3] it was 100%; at KRAS-G12D [6] it was 100%; on KRAS-G12D [7], 70.2%.
In the case of `C#Cc1c(F)ccc2cc(O)cc(-c3ncc4c(N5CC6CCC(C5)N6)nc(OC[C@@]56CCCN5C[C@H](F)C6)nc4c3F)c12` [MRTX1133], the specificity result in the experiment on KRAS-G12D mutant cells is on record as “more than 1000 times”. The “inhibition in xenograft tumor models” value in [10] is reported as “Dose-dependent inhibition”.
For the compound `C#Cc1cccc2cc(O)cc(-c3ccc4c(N5CC6CCC(C5)N6)nc(OCC5(CN6CCN(CC7CCC8(CC7)CCN(C(=O)c7ccc(C)c(N9CCC(=O)NC9=O)c7)CC8)CC6)CC5)nc4c3F)c12` [Example 77, 1-(5-(9-((4-((1-(((4-(3,8-diazabicyclo[3.2.1]octan-3-yl)-7-(8-ethynyl-3-hydroxynaphthalen-1-yl)-8-fluoroquinazolin-2-yl)oxy)methyl)cyclopropyl)methyl)piperazin-1-yl)methyl)-3-azaspiro[5.5]undecane-3-carbonyl)-2-methylphenyl)dihydropyrimidine-2,4(1H,3H)-dione], the IC50 was 6.75 nM in [1]; 9.54 nM in experiment [4]; 8.9 nM in [5]; 17.8 nM in [8]; 31.5 nM in experiment [9]. Also, the DC50 on KRAS-G12D [2] is 1.47 nM; on KRAS-G12D [3], 26.2 nM; at KRAS-G12D [6] it was 13.2 nM; at KRAS-G12D [7], 1.76 nM. Moreover, the Dmax on KRAS-G12D [2] amounted to 100%; at KRAS-G12D [3], 98.5%; at KRAS-G12D [6] it was 98.2%; on KRAS-G12D [7], 94.5%.

Values taken from US20260166159A1, “KRAS G12D DEGRADATION AGENT, AND PREPARATION METHOD AND USE THEREFOR” (LEADINGTAC PHARMACEUTICAL (SHAOXING) CO., LTD., priority 2022, published 2026).
